# Laboratory results reported in patent US20230248715A1, “METHOD OF TREATING ACUTE MIGRAINE WITH CGRP-ACTIVE COMPOUND” (Merck Sharp & Dohme Corp., priority 2016, published 2023).
# Assays:
# acute migraine = experiment: Phase IIb randomized, double-blind, placebo-controlled trial of ubrogepant (MK-1602-006; NCT01613248): efficacy; assay type: in vivo, human
# Experimental: A Phase IIb, multicenter, randomized, double-blind, placebo-controlled trial was conducted (Merck Protocol MK-1602-006;published online at ClinicalTrials.gov as NCT01613248) to investigate the efficacy and safety of ubrogepant across a range of doses. The study was conducted in accordance with principles of Good Clinical Practice, and was approved by Schulman Associates Institutional Review Board Inc. Each participant provided written informed consent. This study complied with the International Headache Society's guidelines for controlled trials of drugs in migraine, including the use of two-hour pain freedom as an endpoint. The sample size was large, populations were well balanced, and demographics were reflective of the broader migraine populations, contributing to the generalizability of the trial. Participants were allocated in a double-blind fashion using a computer-generated randomized allocation schedule prepared by a blinded statistician. Randomization was stratified based on the participant's self-reported usual triptan response: oral triptan high-responder (current users of triptans who respond […]); oral triptan low-responder (current users of triptans who respond <75% of the time or those who have tried triptans but no longer use them); oral triptan naive. Numbered containers were used to implement allocation. Personnel at each study site used a central interactive voice response system to determine which container should be given to which participant. All study personnel, including investigators, site staff, participants, and sponsor staff remained blinded to treatment allocation throughout the study. Unblinding took place after data collection was complete. After being randomized, participants had up to two months to treat a qualifying migraine (as defined herein). Once the targeted number of treated participants with evaluable data was reached, study enrollment was stopped, as specified in the protocol at the sponsor's discretion. Participants who were enrolled but had not treated a migraine were asked to return their study medication and were discontinued from the study With reference to FIG. 1, eligible participants were allocated in a 1:1 ratio to one of the following treatment groups: 1, 10, 25, 50, and 100 mg of ubrogepant, or placebo. Study medication was provided to participants in a single bottle, with a single dose per bottle. Participants were instructed to take the dose when they experienced a qualifying migraine defined by the following conditions: migraine headache was moderate or severe (grade 2 or 3 on pain scale); migraine headache started less than four hours earlier; the migraine headache was a new headache that had not been previously treated and was not a recurrence of a previous migraine head ache (at least 48 hours had elapsed since the complete termination of their last attack (pain and all associated symptoms); no other migraine headache or headache had occurred in the previous 48 hours; the migraine headache was not already resolving on its own; and no prohibited medication had been taken. The onset of migraine and the results from administering the study medication were self-reported by participants using a paper diary. Headache severity was measured on the following pain scale: 0 none; 1 mild; 2 moderate; 3 severe. Participants assessed headache at baseline and then every 30 minutes up to two hours, then hourly up to four hours and at 6,8,24, and 48 hours. The primary efficacy endpoints were pain freedom at two hours post-dose (reduction in headache severity from grade 2 or 3 at baseline to grade 0) and headache response at two hours post-dose (reduction in headache severity from grade 2 or 3 at baseline to grade 1 or 0). […]
# [1] = Phase IIb randomized, double-blind, placebo-controlled trial of ubrogepant (MK-1602-006; NCT01613248): safety endpoints; assay type: in vivo, human
# Experimental: A Phase IIb, multicenter, randomized, double-blind, placebo-controlled trial was conducted (Merck Protocol MK-1602-006;published online at ClinicalTrials.gov as NCT01613248) to investigate the efficacy and safety of ubrogepant across a range of doses. The study was conducted in accordance with principles of Good Clinical Practice, and was approved by Schulman Associates Institutional Review Board Inc. Each participant provided written informed consent. This study complied with the International Headache Society's guidelines for controlled trials of drugs in migraine, including the use of two-hour pain freedom as an endpoint. The sample size was large, populations were well balanced, and demographics were reflective of the broader migraine populations, contributing to the generalizability of the trial.
# With reference to FIG. 1, eligible participants were allocated in a 1:1 ratio to one of the following treatment groups: 1, 10, 25, 50, and 100 mg of ubrogepant, or placebo. Study medication was provided to participants in a single bottle, with a single dose per bottle. Participants were instructed to take the dose when they experienced a qualifying migraine defined by the following conditions: migraine headache was moderate or severe (grade 2 or 3 on pain scale); migraine headache started less than four hours earlier; the migraine headache was a new headache that had not been previously treated and was not a recurrence of a previous migraine head ache (at least 48 hours had elapsed since the complete termination of their last attack (pain and all associated symptoms); no other migraine headache or headache had occurred in the previous 48 hours; the migraine headache was not already resolving on its own; and no prohibited medication had been taken.
# Participants were also monitored for safety endpoints, including standard safety assessment (medical history and physical examination; vital signs; electrocardiogram; laboratory tests including hematology, blood chemistry, and urinalysis; and female participants of childbearing potential were administered pregnancy tests) and adverse events, including any post-screening elevation in participants of aspartate amino-transferase (AST) and/or ALT, defined as: >3×upper-limit-of-normal (>3×ULN).
# For the analysis of efficacy data, the Full-Analysis-Set population served as the primary population. […] The All-Subjects-as-Treated (ASaT) population was used for safety analyses.
compound,measurement,setting,value
C[C@@H]1[C@H](c2ccccc2)C[C@H](NC(=O)c2cnc3c(c2)C[C@@]2(C3)C(=O)Nc3ncccc32)C(=O)N1CC(F)(F)F [ubrogepant],two-hour pain-free rate vs placebo,"acute migraine; 25 mg, oral, two hours post-dose, nominal p value",nominally significantly higher two-hour pain-free rate than placebo
same,sustained pain freedom 2-24 hours vs placebo,"acute migraine; 25 mg, oral, nominal p value",Nominally significant differences from placebo
same,sustained pain relief 2-48 hours vs placebo,"acute migraine; 25 mg, oral, nominal p value",Nominally significant differences from placebo
same,total migraine freedom at two hours vs placebo,"acute migraine; 25 mg, oral, nominal p value",Nominally significant differences from placebo
same,two-hour pain-free rate vs placebo,"acute migraine; 50 mg, oral, two hours post-dose, nominal p value",nominally significantly higher two-hour pain-free rate than placebo
same,absence of phonophobia at two hours vs placebo,"acute migraine; 50 mg, oral, nominal p value",Nominally significant differences from placebo
same,absence of photophobia at two hours vs placebo,"acute migraine; 50 mg, oral, nominal p value",Nominally significant differences from placebo
same,sustained pain freedom 2-24 hours vs placebo,"acute migraine; 50 mg, oral, nominal p value",Nominally significant differences from placebo
same,sustained pain relief 2-24 hours vs placebo,"acute migraine; 50 mg, oral, nominal p value",Nominally significant differences from placebo
same,sustained pain relief 2-48 hours vs placebo,"acute migraine; 50 mg, oral, nominal p value",Nominally significant differences from placebo
same,total migraine freedom 2-24 hours vs placebo,"acute migraine; 50 mg, oral, nominal p value",Nominally significant differences from placebo
same,total migraine freedom at two hours vs placebo,"acute migraine; 50 mg, oral, nominal p value",Nominally significant differences from placebo
same,two-hour pain freedom vs placebo,"acute migraine; 100 mg, oral, two hours post-dose",statistically significant superiority to placebo
same,secondary endpoints vs placebo,"acute migraine; 100 mg, oral, nominal p values",nominally significant improvements vs placebo on all secondary endpoints except absence of nausea at two hours
same,treatment effects across most endpoints (all efficacy data),"acute migraine; 25-mg, 50-mg, and 100-mg doses",consistent positive treatment effects
same,"response trend across ubrogepant doses, proportion of participants who achieved two-hour pain freedom","acute migraine; oral tablet, single dose, 1, 10, 25, 50, 100 mg, p<0.001 for trend test",positive response trend
same,dose dependence of AEs,[1]; 1-100 mg single dose,No AEs showed clear dose dependence
same,incidence of AEs within the 14 days post-dose,[1]; compared with incidence within 48 hours,generally similar to the incidence within 48 hours
same,other abnormal laboratory values,[1]; single dose,no other abnormal laboratory values of clinical relevance
same,post-treatment elevations of ALT >3×ULN,[1]; single dose,no observed post-treatment elevations
same,liver enzyme increases,[1]; single-dose study,no liver enzyme increases clearly attributable to administration of ubrogepant
same,tolerability on administration,[1]; summary statement,well-tolerated
